Like-named read-outs stand apart in the source and are kept apart here.
Legend:
Experiment in all cases: Inhibition of primary tumor cell cultures (48 hours) vs NK1 receptor immunostaining (Example 1)
Assay type in all cases: cell-based
Details in all cases: Homo sapiens, 1 micromolar, read-out: Percentage of inhibition of cell cultures
Gastric carcinoma = test system: Gastric carcinoma
Description: (§1) Cell cultures. To obtain tumor cells from human primary tumors we used the method described in De Bari et al. (De Bari et al. 2001). Briefly, small pieces of the tumors were digested into a hyaluronidase solution (Sigma-Aldrich, USA) at a concentration of 1 mg/ml during 15 minutes at 37°C, and then they were treated with 6 mg/ml of collagenase type IV (Invitrogen) during 2 hours at 37°C. Consecutively, cells were washed, and resuspended in the DMEM culture medium with high concentration of glucose (Dulbecco's Modified Eagle's Medium, Invitrogen) supplemented with 1% of antibiotics-antimycotics (Invitrogen) and with 1% of sodium pyruvate (Invitrogen), and the cells were seeded in culture slides at a concentration of 10.000 cells per square centimeter. When cells reached confluence, the adherent cells were separated using sterile trypsin at 0,5% (Invitrogen) and they were used among passages 3 and 9. For the assays shown next, tumor cells were seeded on slides at a concentration of 25.000 cells per well. A total of 6 wells containing the tumor cells were used as survival control. […] All the cultures were kept during 48 hours and later on recollected for their analysis.
(§2) Immunohistochemistry techniques. The presence of NK1 receptors was also analyzed using immunohistochemistry techniques. Briefly, a sample of each of the cultures of the cell lines used in the present invention, was centrifuged (5 minutes at 1.500 rpm) and the pellet obtained was dehydrated using increasing concentrations of ethanol and, finally, xylol. Then, said dehydrated samples were embedded in paraffin, creating a block of cells. Such paraffin blocks were cut with a microtome at 5 microns thickness, and were placed on microscope slides adequate to perform immunohistochemistry techniques. Consecutively, they were de-paraffinized by immersing them in xylol, to be finally hydrated using a solution containing decreasing concentrations of ethanol, and finally submerged them into water. […] After this, the samples were left to cool down at room temperature for 10 minutes. The endogenous peroxidase activity was blocked with 3% peroxide of hydrogen for 30 minutes at room temperature. After washing the samples with 0.05 M of Tris buffer, they were incubated with 10% non-immune pork serum at for 30 minutes at room temperature. To analyze the expression of NK1 receptors, the cellular samples were incubated in the presence of anti-NK1 antibodies (S8305, Sigma-Aldrich) diluted 1:1000, overnight at 4°C. Afterwards, the samples were washed in Tris buffer 0.05 M at room temperature. The next step was the addition of Envision System-HRP (Dako) reagents for 30 minutes at room temperature. Then, the samples were washed again in Tris buffer 0.05 M and the immunoreactivity was visualized through light microscopy with a chromogenic solution containing 3,3'-Diaminobenzidine (DAB+; Dako, USA). To differentiate the cell nuclei, they were slightly stained with hematoxylin. As negative control, it was used samples not incubated with the primary antibody anti-NK1, which was replaced by non-immune serum. All the samples were evaluated.
(§3) To value the immunostaining in each of the cases six cuts were performed to be analyzed by the immunohistochemistry technique. In each of the six cuts, it was counted cells in 20 fields (magnification 400x) using an Olympus microscope (model CX31). In each field it was counted the total number of cells and the number of cells presenting immunostaining, calculating afterwards the percentage of cells which presented immunostaining.

Pancreatic carcinoma = test system: Pancreatic carcinoma
Description: as §1, §2, §3

Renal cell carcinoma = test system: Renal cell carcinoma
Description: as §1, §2, §3

Breast carcinoma = test system: Breast carcinoma
Description: as §1, §2, §3

[1] = test system: Carcinoma of the uterine cervix
Description: as §1, §2, §3

[2] = test system: Lung carcinoma (non small cell type)
Description: as §1, §2, §3

[3] = test system: Thyroid carcinoma (folliculary type)
Description: as §1, §2, §3

[4] = test system: Thyroid carcinoma (papillary type)
Description: as §1, §2, §3

Glioma = test system: Glioma
Description: as §1, §2, §3

Fibrosarcoma = test system: Fibrosarcoma
[5] = NK1 receptor immunostaining Group 1 (less than 20% of the cells)
[6] = NK1 receptor immunostaining Group 2 (20-80% of the cells)
[7] = NK1 receptor immunostaining Group 3 (more than 80% of the cells)
[8] = NK1 receptor immunostaining Intensity grade 1
[9] = NK1 receptor immunostaining Intensity grade 2
[10] = NK1 receptor immunostaining Intensity grade 3

Structure (SMILES): CC(=O)N1CCN([C@H]2CCN(C(=O)N(C)[C@H](C)c3cc(C(F)(F)F)cc(C(F)(F)F)c3)[C@@H](c3ccc(F)cc3C)C2)CC1 [Casopitant]
- inhibition at 1 µM (Gastric carcinoma; [5]): 12 ± 4%
- inhibition at 1 µM (Gastric carcinoma; [6]): 46 ± 2%
- inhibition at 1 µM (Gastric carcinoma; [7]): 90 ± 2%
- inhibition at 1 µM (Gastric carcinoma; [8]): 31 ± 3%
- inhibition at 1 µM (Gastric carcinoma; [9]): 53 ± 3%
- inhibition at 1 µM (Gastric carcinoma; [10]): 91 ± 3%
- inhibition at 1 µM (Pancreatic carcinoma; [5]): 10 ± 4%
- inhibition at 1 µM (Pancreatic carcinoma; [6]): 45 ± 2%
- inhibition at 1 µM (Pancreatic carcinoma; [7]): 92 ± 4%
- inhibition at 1 µM (Pancreatic carcinoma; [8]): 33 ± 5%
- inhibition at 1 µM (Pancreatic carcinoma; [9]): 53 ± 3%
- inhibition at 1 µM (Pancreatic carcinoma; [10]): 93 ± 1%
- inhibition at 1 µM (Renal cell carcinoma; [5]): 16 ± 4%
- inhibition at 1 µM (Renal cell carcinoma; [6]): 46 ± 3%
- inhibition at 1 µM (Renal cell carcinoma; [7]): 91 ± 5%
- inhibition at 1 µM (Renal cell carcinoma; [8]): 34 ± 2%
- inhibition at 1 µM (Renal cell carcinoma; [9]): 55 ± 5%
- inhibition at 1 µM (Renal cell carcinoma; [10]): 91 ± 4%
- inhibition at 1 µM (Breast carcinoma; [5]): 15 ± 3%
- inhibition at 1 µM (Breast carcinoma; [6]): 47 ± 4%
- inhibition at 1 µM (Breast carcinoma; [7]): 92 ± 3%
- inhibition at 1 µM (Breast carcinoma; [8]): 35 ± 3%
- inhibition at 1 µM (Breast carcinoma; [9]): 56 ± 6%
- inhibition at 1 µM (Breast carcinoma; [10]): 92 ± 2%
- inhibition at 1 µM [1, 5]: 16 ± 3%
- inhibition at 1 µM [1, 6]: 47 ± 4%
- inhibition at 1 µM [1, 7]: 93 ± 3%
- inhibition at 1 µM [1, 8]: 33 ± 3%
- inhibition at 1 µM [1, 9]: 53 ± 3%
- inhibition at 1 µM [1, 10]: 92 ± 2%
- inhibition at 1 µM [2, 5]: 10 ± 2%
- inhibition at 1 µM [2, 6]: 46 ± 2%
- inhibition at 1 µM [2, 7]: 92 ± 5%
- inhibition at 1 µM [2, 8]: 32 ± 4%
- inhibition at 1 µM [2, 9]: 54 ± 4%
- inhibition at 1 µM [2, 10]: 93 ± 3%
- inhibition at 1 µM [3, 5]: 14 ± 3%
- inhibition at 1 µM [3, 6]: 44 ± 3%
- inhibition at 1 µM [3, 7]: 94 ± 4%
- inhibition at 1 µM [3, 8]: 34 ± 3%
- inhibition at 1 µM [3, 9]: 54 ± 5%
- inhibition at 1 µM [3, 10]: 93 ± 2%
- inhibition at 1 µM [4, 5]: 16 ± 2%
- inhibition at 1 µM [4, 6]: 44 ± 2%
- inhibition at 1 µM [4, 7]: 95 ± 5%
- inhibition at 1 µM [4, 8]: 35 ± 4%
- inhibition at 1 µM [4, 9]: 55 ± 6%
- inhibition at 1 µM [4, 10]: 92 ± 3%
- inhibition at 1 µM (Glioma; [5]): 16 ± 3%
- inhibition at 1 µM (Glioma; [6]): 46 ± 4%
- inhibition at 1 µM (Glioma; [7]): 93 ± 5%
- inhibition at 1 µM (Glioma; [8]): 36 ± 3%
- inhibition at 1 µM (Glioma; [9]): 54 ± 5%
- inhibition at 1 µM (Glioma; [10]): 91 ± 3%
- inhibition at 1 µM (Fibrosarcoma; [5]): 15 ± 2%
- inhibition at 1 µM (Fibrosarcoma; [6]): 47 ± 5%
- inhibition at 1 µM (Fibrosarcoma; [7]): 93 ± 4%
- inhibition at 1 µM (Fibrosarcoma; [8]): 35 ± 6%

From patent publication EP2966448B1, “METHOD FOR THE PREDICTION OR PROGNOSIS OF THE RESPONSE OF A HUMAN SUBJECT SUFFERING FROM CANCER TO TREATMENT WITH AN ANTAGONIST OF THE NK1 RECEPTOR” (priority 2013, dated 2014)
